Test results from ChEMBL document CHEMBL1129292, “Theoretical study of inhibition of adenosine deaminase by (8R)-coformycin and (8R)-deoxycoformycin” (J Med Chem, 1996).

Target: T1, Adenosine deaminase (Homo sapiens, UniProt P00813)
T1 sequence (P00813 whole entry): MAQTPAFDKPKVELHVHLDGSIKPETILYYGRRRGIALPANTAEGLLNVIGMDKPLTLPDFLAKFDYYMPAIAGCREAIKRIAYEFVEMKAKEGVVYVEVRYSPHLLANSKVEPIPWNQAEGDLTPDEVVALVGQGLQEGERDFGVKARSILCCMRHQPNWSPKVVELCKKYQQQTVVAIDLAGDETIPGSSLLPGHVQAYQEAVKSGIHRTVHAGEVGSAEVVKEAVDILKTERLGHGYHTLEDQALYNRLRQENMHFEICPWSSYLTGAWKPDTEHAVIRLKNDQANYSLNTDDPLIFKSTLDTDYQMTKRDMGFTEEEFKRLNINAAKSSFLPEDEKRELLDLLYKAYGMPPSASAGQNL
Experiment: Binding affinity towards Adenosine deaminase

Compound | Ki
OCC1OC(n2cnc3c2N=CCC[C@H]3O)C[C@H]1O (single isomer, unassigned) | 2.5 pM
OCC1OC(n2cnc3c2N=CCC[C@H]3O)[C@@H](O)[C@H]1O (single isomer, unassigned) [CONFORMYCIN] | 10 pM
